Measurements from ChEMBL document CHEMBL1136150, “Hypocholesterolemic activity of hesperetin derivatives” (2003).

Experiments:
Format in all cases: functional
Mus musculus [1] = organism: Mus musculus; assay: Effect on plasma total cholesterol in high cholesterol-fed mice after 10 day
Mus musculus [2] = organism: Mus musculus; assay: Body weight of the high cholesterol-fed mice after 0 day
Mus musculus [3] = organism: Mus musculus; assay: Effect on plasma total cholesterol in high cholesterol-fed mice after 0 day
Mus musculus [4] = organism: Mus musculus; assay: Body weight of the high cholesterol-fed mice after 10 day

Row | Structure (SMILES) | Total cholesterol (Mus musculus [1]) | Body weight (Mus musculus [2]) | Total cholesterol (Mus musculus [3]) | Body weight (Mus musculus [4])
1 | CCCCCCCCCCCCOc1cc(O)c2c(c1)OC(c1ccc(OC)c(O)c1)CC2=O (configuration not stated) | 189 mg/dL | 22 g | 95 mg/dL | 22.4 g
2 | CCCCCCCCCCCC(=O)Oc1cc(O)c2c(c1)OC(c1ccc(OC)c(O)c1)CC2=O (configuration not stated) | 192 mg/dL | 22.4 g | 95 mg/dL | 22.4 g
3 | CCCCCCCCCCCCCCCCCC(=O)Oc1cc(O)c2c(c1)OC(c1ccc(OC)c(O)c1)CC2=O (configuration not stated) | 214 mg/dL | 22.3 g | 95 mg/dL | 23.7 g
4 | CCOc1cc(O)c2c(c1)OC(c1ccc(OC)c(O)c1)CC2=O (configuration not stated) | 218 mg/dL | 21.9 g | 102 mg/dL | 22.5 g
5 | CCCCCCCC/C=C\CCCCCCCCOc1cc(O)c2c(c1)OC(c1ccc(OC)c(O)c1)CC2=O (configuration not stated) | 192 mg/dL | 23.4 g | 96 mg/dL | 23.7 g
6 | CCCCCCCCCCCCCCCCCCOc1cc(O)c2c(c1)OC(c1ccc(OC)c(O)c1)CC2=O (configuration not stated) | 208 mg/dL | 23.1 g | 101 mg/dL | 24.4 g
7 | COc1ccc(C2CC(=O)c3c(O)cc(OC(C)=O)cc3O2)cc1O (configuration not stated) | 220 mg/dL | 23.4 g | 96 mg/dL | 23.7 g
8 | CCCCCCCCCCCCCCCCOc1cc(O)c2c(c1)OC(c1ccc(OC)c(O)c1)CC2=O (configuration not stated) | 202 mg/dL | 22.5 g | 93 mg/dL | 23 g
9 | CCCCCCCCCCCCCCCC(=O)Oc1cc(O)c2c(c1)OC(c1ccc(OC)c(O)c1)CC2=O (configuration not stated) | 209 mg/dL | 21.7 g | 97 mg/dL | 23.4 g
10 | CCCCCCCC/C=C\CCCCCCCC(=O)Oc1cc(O)c2c(c1)OC(c1ccc(OC)c(O)c1)CC2=O (configuration not stated) |  | 22.3 g |  | 23.8 g
11 | COc1ccc([C@@H]2CC(=O)c3c(O)cc(O)cc3O2)cc1O [HESPERETIN] | 216 mg/dL | 25.4 g | 103 mg/dL | 25.6 g
